Publication PMC11054528, “Evaluation of Physicochemical Properties of Ipsapirone Derivatives Based on Chromatographic and Chemometric Approaches” (Molecules, 2024)

What was measured:
[1] = calibration mixture for IAM-HPLC, reference CHI value; column head printed CHI C18; cited from earlier work
[2] = molecular target: T1, human serum albumin (HSA) (Homo sapiens, UniProt P02768); conditions: calibration mixture for HSA-HPLC, reference value; column head printed CHI C18; cited from earlier work
[3] = calibration mixture for C18-HPLC, reference CHI value; cited from earlier work
[4] = IAM-HPLC, immobilized artificial membrane chromatography (affinity to phospholipids); type: physicochemical; parameters: scale not given here; conditions: IAM.PC.DD2 column, pH 7.4
Source text: In considering that lipophilicity is a known factor influencing passive diffusion across the BBB, this is an important observation. The affinity to phospholipids can also be determined using one-gradient protocols and the IAM column. CHIIAM can be used as a cut-off point to indicate the potential for promiscuous binding and interference with phospholipids.
The immobilized artificial membrane column (IAM.PC.DD2, 10 × 4.6 mm × 10.0 µm with a guard column (Regis Technologies; Morton Grove, IL, USA) was used for IAM-HPLC experiments. The column temperature was set to 30 °C. Similar to RP-HPLC, mobile phase A was a 50 mM ammonium acetate at pH 7.4, and mobile phase B was acetonitrile. The linear gradient from […] ACN was applied from 0 to 5.25 min and held at 98% ACN for 0.5 min at a constant flow rate of 1.5 mL/min.

[5] = Fast gradient RP-HPLC on C18 column (CHI lipophilicity); type: physicochemical; conditions: for CHIC18 pH = 2.6 / CHIC18 pH = 7.4 / CHIC18 pH = 10.6: C18 column; for CHI LogP: from chromatographically determined CHI on nonionized forms (pH 10.6), CHI LogP = 0.054 × CHI − 1.467
Source text: Considering the significant differences in the calculations obtained, the next step of our investigation considered the determination of lipophilicity using a chromatographic approach. Among the available protocols, the fast gradient approach developed by Valko was chosen because it enables the assessment of lipophilicity from a single chromatographic measurement. In addition, this approach enables the determination of the acid/basic properties of molecules through the addition of experiments under different pH conditions.
Therefore, the CHI under pH10.6 can be considered and converted to chromatographically determined LogP, called CHI LogP. A cluster analysis (CA) was performed to compare chromatographically determined and calculated lipophilicity. A CA can be used for the visualization of similarities and differences between studied objects, in this case, lipophilic parameters. The obtained results clearly indicate that significant differences between theoretical and experimental data occurred, and they formed two separate groups (Figure 1). The differences are also visible on the calculated correlation matrix (Figure 2).
For RP-HPLC experiments, a C18 Hypersil GOLD^TM (50 mm × 4.6 mm; 5.0 µm with a guard column; Thermo Scientific, Waltham, MA, USA) column was applied. The column temperature was set to 40 °C. Three water solutions were used as mobile phase A: acetic acid at pH 2.6, […] at pH 7.4, and 50 mM ammonium acetate at pH 10.5. Mobile phase B was acetonitrile (ACN). The linear gradient from 2 to 98% ACN was applied from 0 to 5.25 min and held at 98% ACN for 1.75. The mobile phase flow rate was 1.5 mL/min throughout the experiment.

[6] = molecular target: T1, human serum albumin (HSA); experiment: HSA-HPLC, biomimetic chromatography on Chiralpak HSA column; type: in vitro ADME; parameters: purchased Daicel Chiral Technologies, West Chester, PA, USA; conditions: for LogKHSA: pH 7.4; for %HSA: pH 7.4, recalculated from logKHSA
Source text: Utilizing columns modified by plasma proteins, such as human serum albumin (HSA), allows for estimating binding to plasma protein (PPB). Generally, PPB affects drug pharmacokinetics, including distribution, half-life, and clearance. While lipophilicity is a well-known factor in determining PPB, it should also be considered in early drug discovery. In general, more lipophilic compounds tend to have higher percentages of PP due to nonspecific interactions with proteins. However, hydrophilic compounds can also bind strongly to PP through […] and electrostatic interactions by binding in protein pockets.
For HSA-HPLC experiments, the column was Chiralpak® HSA (100 × 4 mm; 5 µm with safety guard column; Daicel Chiral Technologies, West Chester, PA, USA). The column temperature was set to 30 °C. The same phase A as in the IAM-HPLC case was used, and the mobile phase B was isopropanol (i-PrOH). The linear gradient from 0 to 20% i-PrOH was applied from 0 to 15 min, held at 20% i-PrOH for 12 min, and then returned to pure ammonium acetate solution. The mobile phase flow rate was 0.9 mL/min throughout the experiment. Three minutes of column recalibration was applied between each run. The retention times were collected at wavelengths between 190 and 300 nm, and the injection volume was 10 μL.

T1 sequence (P02768 25-609): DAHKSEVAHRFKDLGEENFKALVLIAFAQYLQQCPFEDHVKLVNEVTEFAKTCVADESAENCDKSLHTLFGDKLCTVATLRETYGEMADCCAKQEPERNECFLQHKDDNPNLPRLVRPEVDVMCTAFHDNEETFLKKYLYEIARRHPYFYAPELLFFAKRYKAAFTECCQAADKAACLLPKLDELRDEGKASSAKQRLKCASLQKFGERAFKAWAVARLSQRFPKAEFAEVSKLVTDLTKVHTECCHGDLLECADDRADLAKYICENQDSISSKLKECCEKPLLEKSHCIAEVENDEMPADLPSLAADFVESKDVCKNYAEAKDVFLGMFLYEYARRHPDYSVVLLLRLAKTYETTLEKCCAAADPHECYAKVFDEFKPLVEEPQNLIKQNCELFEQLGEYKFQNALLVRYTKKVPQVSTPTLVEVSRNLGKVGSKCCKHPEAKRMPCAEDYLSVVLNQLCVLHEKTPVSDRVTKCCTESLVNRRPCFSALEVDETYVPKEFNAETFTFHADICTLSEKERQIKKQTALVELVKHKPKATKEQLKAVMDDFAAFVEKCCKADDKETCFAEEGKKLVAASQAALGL

CC(=O)Nc1ccccc1 [Acetanilidine]
CHI (IAM-HPLC calibration) [1]: 11.5

CC(=O)c1ccccc1 [Acetophenone]
CHI (IAM-HPLC calibration) [1]: 17.2

CCCC(=O)c1ccccc1 [Butyrophenone]
CHI (IAM-HPLC calibration) [1]: 32.0

CCCCCCC(=O)c1ccccc1 [Heptanophenone]
CHI (IAM-HPLC calibration) [1]: 45.7

CCCCCC(=O)c1ccccc1 [Hexanophenone]
CHI (IAM-HPLC calibration) [1]: 41.8

CNC(=C[N+](=O)[O-])NCCSCc1csc(CN(C)C)n1 [Nizatidine]
HSA binding (HSA-HPLC calibration) [2]: 35.0%

CCCCCCCC(=O)c1ccccc1 [Octanophenone]
CHI (IAM-HPLC calibration) [1]: 49.4

CC(=O)Nc1ccc(O)cc1 [Paracetamol]
CHI (IAM-HPLC calibration) [1]: 2.9

CCC(=O)c1ccccc1 [Propiophenone]
CHI C18 [3]: 77.5 | CHI (IAM-HPLC calibration) [1]: 25.9

CCCCC(=O)c1ccccc1 [Valerophenone]
CHI (IAM-HPLC calibration) [1]: 37.3

O=C1c2ccccc2S(=O)(=O)N1CCCCCCN1CCN(c2ccccc2F)CC1 [molecule 20]
CHIIAM [4]: 42.69 | CHIC18 pH = 2.6 [5]: 57.21 | CHIC18 pH = 7.4 [5]: 97.64 | CHIC18 pH = 10.6 [5]: 104.68 | CHI LogP [5]: 4.19 | LogKHSA [6]: 1.00 | %HSA [6]: 91.90%

O=C1c2ccccc2S(=O)(=O)N1CCCCCCN1CCN(c2cccc3ccccc23)CC1 [molecule 21]
CHIIAM [4]: 48.85 | CHIC18 pH = 2.6 [5]: 65.07 | CHIC18 pH = 7.4 [5]: 109.08 | CHIC18 pH = 10.6 [5]: 118.03 | CHI LogP [5]: 4.91 | LogKHSA [6]: 1.75 | %HSA [6]: 99.25%

O=C1c2ccccc2S(=O)(=O)N1CCCCCCN1CCN(c2ccccn2)CC1 [molecule 22]
CHIIAM [4]: 38.48 | CHIC18 pH = 2.6 [5]: 43.25 | CHIC18 pH = 7.4 [5]: 82.33 | CHIC18 pH = 10.6 [5]: 90.87 | CHI LogP [5]: 3.44 | LogKHSA [6]: 0.55 | %HSA [6]: 78.60%

O=C1c2ccccc2S(=O)(=O)N1CCCCCCN1CCN(c2ncccn2)CC1 [molecule 23]
CHIIAM [4]: 34.77 | CHIC18 pH = 2.6 [5]: 41.03 | CHIC18 pH = 7.4 [5]: 80.76 | CHIC18 pH = 10.6 [5]: 89.54 | CHI LogP [5]: 3.37 | affinity to HSA, in words [6]: relatively low-binding to HAS | LogKHSA [6]: −0.05 | %HSA [6]: 47.66%

O=C1c2ccccc2S(=O)(=O)N1CCCCCCN1CCN(c2nsc3ccccc23)CC1 [molecule 24]
CHIIAM [4]: 45.78 | CHIC18 pH = 2.6 [5]: 60.18 | CHIC18 pH = 7.4 [5]: 102.90 | CHIC18 pH = 10.6 [5]: 107.33 | CHI LogP [5]: 4.33 | LogKHSA [6]: 1.23 | %HSA [6]: 95.36%

O=C1c2ccccc2S(=O)(=O)N1CCCCCCN1CCN(c2cccc3sccc23)CC1 [molecule 25]
CHIIAM [4]: 45.96 | CHIC18 pH = 2.6 [5]: 60.65 | CHIC18 pH = 7.4 [5]: 101.68 | CHIC18 pH = 10.6 [5]: 108.64 | CHI LogP [5]: 4.40 | LogKHSA [6]: 1.57 | %HSA [6]: 98.37%

COc1ccccc1N1CCN(Cc2ccc(CN3C(=O)c4ccccc4S3(=O)=O)cc2)CC1 [molecule 26]
CHIIAM [4]: 41.48 | CHIC18 pH = 2.6 [5]: 55.76 | CHIC18 pH = 7.4 [5]: 100.20 | CHIC18 pH = 10.6 [5]: 100.01 | CHI LogP [5]: 3.93 | LogKHSA [6]: 1.19 | %HSA [6]: 94.87%
